Assay results from US9375005B2, “5-halogenopyrazole indanyl carboxamides” (BAYER CROPSCIENCE AG, priority 2012, dated 2016).

Key:
[1] = Measurement of log P values by HPLC on reversed phase columns (EEC directive 79/831 Annex V.A8); assay type: physicochemical; settings: method marked [a]
Pyricularia oryzae = assay type: in vivo; settings: dose 500 ppm; rice plants sprayed 24 h before contamination; grading 6 days after contamination
Uromyces appendiculatus = assay: In vivo preventive test on Uromyces appendiculatus (bean rust); settings: dose 500 ppm; bean plants sprayed 24 h before contamination; grading 11 days after contamination
Summary of the method: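 Saxa bean plants grown at 24° C were sprayed at the 2-leaf stage (9 cm) with compound in acetone/tween/DMSO/water; controls got solvent mix only. Leaves inoculated 24 h later with U. appendiculatus spores (150 000 spores/ml). Efficacy (%) graded 11 days post-inoculation versus controls.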

Alternaria brassicae = assay: In vivo preventive test on Alternaria brassicae (leaf spot on radish); settings: dose 500 ppm; radish plants sprayed 24 h before contamination; grading 6 days after contamination vs control plants
Description: Radish plants (“Pernod Clair” variety), sown in starter cups on a 50/50 peat soil-pozzolana substrate and grown at 17° C., are treated at the cotyledon stage by spraying with the active ingredient prepared as described above. Plants, used as controls, are treated with the mixture of acetone/tween/DMSO/water not containing the active material. After 24 hours, the plants are contaminated by spraying the cotyledons with an aqueous suspension of Alternaria brassicae spores (50 000 spores per ml). The spores are collected from a 15-day-old culture. […] Grading (% of efficacy) is carried out 6 days after the contamination, in comparison with the control plants.

Phakopsora pachyrhizi = assay: In vivo preventive Phakopsora test (soybeans); settings: concentration 10 ppm of active ingredient; soybean plants; evaluated 7 days after inoculation
Puccinia recondita = assay: In vivo preventive test on Puccinia recondita (brown rust on wheat); settings: dose 500 ppm; wheat plants sprayed 24 h before contamination; grading 12 days after contamination
Description: Plants, used as controls, are treated with the mixture of acetone/tween/DMSO/water not containing the active material. After 24 hours, the plants are contaminated by spraying the leaves with an aqueous suspension of Puccinia recondita spores (100 000 spores per ml). […] Grading (% of efficacy) is carried out 12 days after the contamination, in comparison with the control plants.

Pyrenophora teres = assay: In vivo preventive test on Pyrenophora teres (net blotch on barley); settings: dose 500 ppm; barley plants sprayed 24 h before contamination; grading 14 days after contamination
Summary of the method: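 "Plaisant" barley grown at 22° C, sprayed with active ingredient at the 1-leaf stage, then inoculated 24 h later with 12 000 spores/ml of P. teres. Efficacy (%) graded 14 days post-contamination against solvent-only (acetone/tween/DMSO/water) controls.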

Botrytis cinerea = assay: In vivo preventive test on Botrytis cinerea (grey mould); settings: dose 500 ppm; gherkin plants sprayed 24 h before contamination; grading 4 to 5 days after contamination
Description: Gherkin plants (“Vert petit de Paris” variety), sown in starter cups on a 50/50 peat soil-pozzolana substrate and grown at 24° C., are treated at the Z11 cotyledon stage by spraying with the active ingredient prepared as described above. Plants, used as controls, are treated with the mixture of acetone/tween/DMSO/water not containing the active material. After 24 hours, the plants are contaminated by spraying the cotyledons with an aqueous suspension of cryopreserved Botrytis cinerea spores (50 000 spores per ml). The spores are suspended in a nutrient solution composed of 10 g/L of PDB, 50 g/L of D-Fructose, 2 g/L of NH4NO3 and 1 g/L of KH2PO4. […] Grading (% of efficacy) is carried out 4 to 5 days after the contamination, in comparison with the control plants.

Row | Structure (SMILES) | logP [1] | Eff. % (Pyricularia oryzae) | Eff. % (Uromyces appendiculatus) | Eff. % (Alternaria brassicae) | Eff. % (Phakopsora pachyrhizi) | Eff. % (Puccinia recondita) | Eff. % (Pyrenophora teres) | Eff. % (Botrytis cinerea)
1 | Cn1nc(C(F)F)c(C(=O)Nc2cccc3c2CC(Cc2ccccc2)C3)c1Cl (centres unmarked) [Example 39] | 4.41[a] | 86% | 100% | 79% | – | – | – | –
2 | CC1CC(C)c2c(NC(=O)c3c(C(F)F)nn(C)c3Cl)cccc21 (centres unmarked) [Example 44] | – | – | 100% | – | 98% | 100% | – | –
3 | CC1Cc2c(NC(=O)c3c(C(F)F)nn(C)c3Cl)cccc2C1(C)C (centres unmarked) [Example 46] | 4.19[a] | 97% | 100% | 86% | 94% | 100% | 75% | –
4 | CC1CC2(CC2)c2cccc(NC(=O)c3c(C(F)F)nn(C)c3Cl)c21 (centres unmarked) [Example 51] | 3.83[a] | – | 100% | – | 93% | 98% | 70% | 94%
